The inhibition is the share of the control response that was lost under treatment. Usually IC50 stands for the concentration needed to halve the response being measured.

Molecules are shown by their SMILES.

Results on nine compounds are retold here after EP4592286A1, “MACROCYCLIC NITROGEN-CONTAINING CROWN ETHER COMPOUND AND USE THEREOF AS PROTEIN KINASE INHIBITOR” (Artivila Biopharma, priority 2022, dated 2024).

Format in all cases: biochemical
Assay [1] concerns the target JAK2 (Homo sapiens, UniProt O60674). Put plainly: experiment of inhibiting kinase activity (Caliper mobility shift assay), JAK2. The following applies: for inhibition at 0.01 µM: at 10 nM; for inhibition at 0.01 µM / inhibition at 0.1 µM: read-out: inhibition rate JAK2; for inhibition at 0.1 µM: at 100 nM; for IC50: kinase activity assay, Table 3. The essentials: (§1)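 Steps: compound and kinase in 1× kinase buffer, 10 min at room temperature; ATP plus substrate added to start; reaction run at room temperature, then stopped. Conversion read by Caliper; IC50 from four-parameter variable-slope fit of % inhibition against log concentration.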

In assay [2] the target is JAK1 (Homo sapiens, UniProt P23458). Put plainly: experiment of inhibiting kinase activity (Caliper mobility shift assay), JAK1. The following applies: for inhibition at 0.1 µM: at 100 nM, read-out: inhibition rate JAK1. The method, boiled down:
as §1

In assay [3] the target is CDK7 (Homo sapiens, UniProt P50613). Put plainly: experiment of inhibiting kinase activity (Caliper mobility shift assay), CDK7. Conditions: for inhibition at 0.1 µM: at 100 nM; for IC50: kinase activity assay, Table 3. As to the method: (§2) The inhibition rates of tested compounds on JAK1, JAK2, JAK3, TYK2, CDK7, CDK9, EGFR (T790M) and LRRK2 kinases were measured. The test concentrations of the compounds were 10 nM and 100 nM, and the detection was performed by replicate wells. Alternatively, compounds were 3-fold serial diluted from 10 µM for 10 concentrations in replicate wells.
Chain of CDK7 (P50613 whole entry, species assumed): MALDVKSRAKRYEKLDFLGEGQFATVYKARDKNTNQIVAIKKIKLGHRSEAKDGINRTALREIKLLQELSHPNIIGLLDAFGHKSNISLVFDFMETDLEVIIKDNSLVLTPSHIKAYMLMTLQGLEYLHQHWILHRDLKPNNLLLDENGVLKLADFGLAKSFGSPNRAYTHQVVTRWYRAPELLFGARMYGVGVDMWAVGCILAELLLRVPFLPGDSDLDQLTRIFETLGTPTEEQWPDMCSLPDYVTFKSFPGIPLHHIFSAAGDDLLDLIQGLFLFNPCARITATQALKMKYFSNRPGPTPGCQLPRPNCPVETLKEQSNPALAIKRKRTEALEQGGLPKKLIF
Chain of CDK7 (P51946 whole entry partner, species assumed): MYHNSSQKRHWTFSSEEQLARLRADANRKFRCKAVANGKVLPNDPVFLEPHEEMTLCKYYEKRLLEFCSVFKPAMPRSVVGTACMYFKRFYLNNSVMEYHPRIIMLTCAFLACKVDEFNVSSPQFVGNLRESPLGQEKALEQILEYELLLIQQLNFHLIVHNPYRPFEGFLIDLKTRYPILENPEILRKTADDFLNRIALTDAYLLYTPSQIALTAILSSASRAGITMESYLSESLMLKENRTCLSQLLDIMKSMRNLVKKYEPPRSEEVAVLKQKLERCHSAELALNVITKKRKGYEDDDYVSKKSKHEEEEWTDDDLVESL
Chain of CDK7 (P51948 whole entry partner, species assumed): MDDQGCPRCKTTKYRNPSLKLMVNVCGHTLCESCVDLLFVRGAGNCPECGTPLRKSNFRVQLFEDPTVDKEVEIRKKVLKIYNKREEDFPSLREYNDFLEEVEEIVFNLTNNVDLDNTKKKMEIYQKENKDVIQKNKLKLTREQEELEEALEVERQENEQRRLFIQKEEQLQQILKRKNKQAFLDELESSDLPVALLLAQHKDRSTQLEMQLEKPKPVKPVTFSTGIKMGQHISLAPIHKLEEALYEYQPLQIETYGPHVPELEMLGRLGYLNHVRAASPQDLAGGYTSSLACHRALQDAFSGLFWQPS
The inhibitory effects of the compounds on JAK1, JAK2, JAK3, CDK7 and CDK9 kinases were detected by the method of Caliper mobility shift assay. 250 nL of the compound at 100-fold final concentration was transferred to a destination plate 384-well-plate by using a liquid handler Echo 550. A kinase solution at 2.5-fold final concentration was prepared with 1×kinase buffer. 10 µL of the kinase solution with 2.5-fold final concentration was added to compound wells and positive control wells; and 10 µL of 1×kinase buffer was added to negative control wells. The mixture was centrifuged at 1000 rpm for 30 seconds and then incubated at room temperature for 10 minutes. A mixed solution of ATP and kinase substrate at 5/3-fold final concentration was prepared with 1×kinase buffer, and 15 µL of the mixed solution of ATP and substrate at 5/3-fold final concentration was added to start the reaction. The 384-well plate was centrifuged at 1000 rpm for 30 seconds, shaked and mixed evenly, then incubated at room temperature for a corresponding time. 30 µL of stop solution was added to stop the kinase reaction, the mixture was centrifuged at 1000 rpm for 30 seconds, and shaked and mixed evenly. The conversion rate was read by Caliper EZ Reader. The conversion inhibition rate%=(average positive control conversion rate%-sample conversion rate%)/(average positive control conversion rate%-average negative control conversion rate%). Where negative control wells represent the conversion readings of the background well of kinase buffer; and positive control wells represent the conversion readings of wells without compound inhibition. With the log value of concentration as the x axis and the percentage inhibition rate as the y axis, the dose-response curve was fitted by the log (inhibitor) vs. response-variable slope of the analyzing softwar GraphPad Prism 5, and the IC50 values of each compound on enzyme activity were obtained. Calculation formula is as follows: y=Bottom+(Top-Bottom)/(1+10^((LogIC50-x)×hillslope)), where x is logarithm of inhibitor concentration; and Y is % inhibition rate.

Assay [4] deals with TYK2 (Homo sapiens, UniProt P29597). Put plainly: experiment of inhibiting kinase activity, TYK2. The following applies: read-out: inhibition rate TYK2; for inhibition at 0.01 µM: at 10 nM; for inhibition at 0.1 µM: at 100 nM. On the procedure:
as §2

In assay [5] the target is LRRK2 (Homo sapiens, UniProt Q5S007). Put plainly: experiment of inhibiting kinase activity, LRRK2. The following applies: for inhibition at 0.1 µM: at 100 nM; for inhibition at 0.1 µM / inhibition at 0.01 µM: read-out: inhibition rate LRRK2; for IC50: kinase activity assay, Table 3; for inhibition at 0.01 µM: at 10 nM. As to the method: as §2
Assay [6] has as its target T1, JAK3 (Homo sapiens, UniProt P52333).
T1 sequence (P52333 1-1124): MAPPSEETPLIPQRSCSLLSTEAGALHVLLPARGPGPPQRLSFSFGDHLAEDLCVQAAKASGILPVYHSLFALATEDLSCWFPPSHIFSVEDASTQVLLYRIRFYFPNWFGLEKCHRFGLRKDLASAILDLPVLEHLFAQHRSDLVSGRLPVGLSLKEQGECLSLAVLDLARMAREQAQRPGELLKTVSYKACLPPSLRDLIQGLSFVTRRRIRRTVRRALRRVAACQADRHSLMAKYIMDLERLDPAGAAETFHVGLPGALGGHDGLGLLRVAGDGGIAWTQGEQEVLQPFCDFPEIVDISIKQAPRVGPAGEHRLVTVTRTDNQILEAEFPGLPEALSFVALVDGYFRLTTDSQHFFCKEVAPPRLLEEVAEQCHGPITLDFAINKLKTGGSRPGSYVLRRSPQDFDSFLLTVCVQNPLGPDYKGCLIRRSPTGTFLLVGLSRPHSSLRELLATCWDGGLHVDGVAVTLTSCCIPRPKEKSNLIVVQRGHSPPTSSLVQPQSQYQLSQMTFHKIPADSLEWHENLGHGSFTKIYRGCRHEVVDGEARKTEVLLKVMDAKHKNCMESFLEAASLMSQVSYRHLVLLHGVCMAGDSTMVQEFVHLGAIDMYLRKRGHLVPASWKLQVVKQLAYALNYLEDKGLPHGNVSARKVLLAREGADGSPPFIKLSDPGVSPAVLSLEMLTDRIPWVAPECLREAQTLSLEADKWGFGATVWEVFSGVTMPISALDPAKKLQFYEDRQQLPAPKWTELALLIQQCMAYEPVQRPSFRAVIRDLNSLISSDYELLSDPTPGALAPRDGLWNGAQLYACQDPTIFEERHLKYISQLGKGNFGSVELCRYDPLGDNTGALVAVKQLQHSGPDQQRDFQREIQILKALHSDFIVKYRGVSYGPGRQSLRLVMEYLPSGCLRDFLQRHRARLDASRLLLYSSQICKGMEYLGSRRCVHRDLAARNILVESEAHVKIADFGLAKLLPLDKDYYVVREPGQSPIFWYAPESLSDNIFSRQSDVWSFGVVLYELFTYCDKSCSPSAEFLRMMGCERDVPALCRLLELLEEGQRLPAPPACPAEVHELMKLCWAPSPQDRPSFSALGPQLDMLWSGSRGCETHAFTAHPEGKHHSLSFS
Put plainly: experiment of inhibiting kinase activity (Caliper mobility shift assay), JAK3. The following applies: for inhibition at 0.1 µM: at 100 nM; for inhibition at 0.1 µM / inhibition at 0.01 µM: read-out: inhibition rate JAK3; for IC50: kinase activity assay, Table 3; for inhibition at 0.01 µM: at 10 nM. The essentials: as §1

Chain of JAK2 (O60674 whole entry): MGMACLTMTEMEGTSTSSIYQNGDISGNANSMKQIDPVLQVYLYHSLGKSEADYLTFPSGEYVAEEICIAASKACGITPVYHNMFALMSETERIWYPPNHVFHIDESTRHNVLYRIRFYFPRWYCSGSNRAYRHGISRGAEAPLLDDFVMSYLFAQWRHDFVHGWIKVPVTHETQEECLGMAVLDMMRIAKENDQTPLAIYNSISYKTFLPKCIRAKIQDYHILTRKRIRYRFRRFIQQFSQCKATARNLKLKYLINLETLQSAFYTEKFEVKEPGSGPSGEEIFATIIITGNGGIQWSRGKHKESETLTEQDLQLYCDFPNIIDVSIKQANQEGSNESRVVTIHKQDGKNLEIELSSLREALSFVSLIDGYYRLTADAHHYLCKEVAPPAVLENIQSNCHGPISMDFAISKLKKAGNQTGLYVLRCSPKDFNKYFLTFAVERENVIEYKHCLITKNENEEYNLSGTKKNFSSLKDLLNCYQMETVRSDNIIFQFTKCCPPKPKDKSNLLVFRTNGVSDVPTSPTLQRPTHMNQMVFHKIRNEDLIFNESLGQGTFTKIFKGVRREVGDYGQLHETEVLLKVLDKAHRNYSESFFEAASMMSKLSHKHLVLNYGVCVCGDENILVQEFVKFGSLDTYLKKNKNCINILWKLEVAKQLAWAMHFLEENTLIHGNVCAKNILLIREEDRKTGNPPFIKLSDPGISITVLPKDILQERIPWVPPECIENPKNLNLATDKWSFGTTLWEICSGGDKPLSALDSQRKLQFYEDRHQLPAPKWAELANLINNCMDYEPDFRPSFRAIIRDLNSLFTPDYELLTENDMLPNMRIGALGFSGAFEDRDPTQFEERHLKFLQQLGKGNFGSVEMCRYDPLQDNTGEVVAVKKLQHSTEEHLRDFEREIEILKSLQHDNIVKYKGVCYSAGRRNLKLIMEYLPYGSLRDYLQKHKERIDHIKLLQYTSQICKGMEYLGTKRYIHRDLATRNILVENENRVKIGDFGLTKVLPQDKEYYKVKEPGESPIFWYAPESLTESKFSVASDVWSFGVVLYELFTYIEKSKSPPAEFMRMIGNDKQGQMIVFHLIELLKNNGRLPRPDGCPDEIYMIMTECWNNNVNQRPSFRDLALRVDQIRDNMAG
Chain of JAK1 (P23458 whole entry): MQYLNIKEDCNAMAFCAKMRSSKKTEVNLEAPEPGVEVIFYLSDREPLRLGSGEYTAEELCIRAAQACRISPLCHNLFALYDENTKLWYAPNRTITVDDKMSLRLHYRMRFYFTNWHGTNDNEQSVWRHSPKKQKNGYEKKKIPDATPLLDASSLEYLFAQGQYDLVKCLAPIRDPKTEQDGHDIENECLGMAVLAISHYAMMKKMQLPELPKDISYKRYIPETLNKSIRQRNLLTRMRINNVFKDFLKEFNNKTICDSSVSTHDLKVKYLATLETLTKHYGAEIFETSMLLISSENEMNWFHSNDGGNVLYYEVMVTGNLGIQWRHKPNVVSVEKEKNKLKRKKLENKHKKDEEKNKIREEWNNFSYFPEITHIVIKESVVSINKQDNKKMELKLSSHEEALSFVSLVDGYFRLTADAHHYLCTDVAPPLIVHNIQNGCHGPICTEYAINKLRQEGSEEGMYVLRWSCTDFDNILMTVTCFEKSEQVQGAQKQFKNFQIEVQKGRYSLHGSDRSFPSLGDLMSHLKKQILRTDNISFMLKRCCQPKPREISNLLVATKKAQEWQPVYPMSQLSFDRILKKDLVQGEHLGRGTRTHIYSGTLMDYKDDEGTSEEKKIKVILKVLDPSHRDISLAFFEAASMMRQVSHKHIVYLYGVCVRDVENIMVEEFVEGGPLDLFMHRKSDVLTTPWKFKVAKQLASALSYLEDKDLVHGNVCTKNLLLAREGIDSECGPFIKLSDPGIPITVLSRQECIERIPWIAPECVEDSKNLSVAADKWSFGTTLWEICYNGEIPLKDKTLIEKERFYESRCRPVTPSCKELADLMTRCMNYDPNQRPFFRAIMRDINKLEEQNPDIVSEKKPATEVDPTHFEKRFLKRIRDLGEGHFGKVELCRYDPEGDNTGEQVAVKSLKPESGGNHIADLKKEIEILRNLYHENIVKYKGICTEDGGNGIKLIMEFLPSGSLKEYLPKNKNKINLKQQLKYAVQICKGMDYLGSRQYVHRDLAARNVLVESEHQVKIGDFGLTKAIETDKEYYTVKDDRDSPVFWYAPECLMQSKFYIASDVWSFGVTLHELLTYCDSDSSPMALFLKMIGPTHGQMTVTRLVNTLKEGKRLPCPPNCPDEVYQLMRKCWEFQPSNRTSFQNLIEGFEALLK
Chain of TYK2 (P29597 whole entry): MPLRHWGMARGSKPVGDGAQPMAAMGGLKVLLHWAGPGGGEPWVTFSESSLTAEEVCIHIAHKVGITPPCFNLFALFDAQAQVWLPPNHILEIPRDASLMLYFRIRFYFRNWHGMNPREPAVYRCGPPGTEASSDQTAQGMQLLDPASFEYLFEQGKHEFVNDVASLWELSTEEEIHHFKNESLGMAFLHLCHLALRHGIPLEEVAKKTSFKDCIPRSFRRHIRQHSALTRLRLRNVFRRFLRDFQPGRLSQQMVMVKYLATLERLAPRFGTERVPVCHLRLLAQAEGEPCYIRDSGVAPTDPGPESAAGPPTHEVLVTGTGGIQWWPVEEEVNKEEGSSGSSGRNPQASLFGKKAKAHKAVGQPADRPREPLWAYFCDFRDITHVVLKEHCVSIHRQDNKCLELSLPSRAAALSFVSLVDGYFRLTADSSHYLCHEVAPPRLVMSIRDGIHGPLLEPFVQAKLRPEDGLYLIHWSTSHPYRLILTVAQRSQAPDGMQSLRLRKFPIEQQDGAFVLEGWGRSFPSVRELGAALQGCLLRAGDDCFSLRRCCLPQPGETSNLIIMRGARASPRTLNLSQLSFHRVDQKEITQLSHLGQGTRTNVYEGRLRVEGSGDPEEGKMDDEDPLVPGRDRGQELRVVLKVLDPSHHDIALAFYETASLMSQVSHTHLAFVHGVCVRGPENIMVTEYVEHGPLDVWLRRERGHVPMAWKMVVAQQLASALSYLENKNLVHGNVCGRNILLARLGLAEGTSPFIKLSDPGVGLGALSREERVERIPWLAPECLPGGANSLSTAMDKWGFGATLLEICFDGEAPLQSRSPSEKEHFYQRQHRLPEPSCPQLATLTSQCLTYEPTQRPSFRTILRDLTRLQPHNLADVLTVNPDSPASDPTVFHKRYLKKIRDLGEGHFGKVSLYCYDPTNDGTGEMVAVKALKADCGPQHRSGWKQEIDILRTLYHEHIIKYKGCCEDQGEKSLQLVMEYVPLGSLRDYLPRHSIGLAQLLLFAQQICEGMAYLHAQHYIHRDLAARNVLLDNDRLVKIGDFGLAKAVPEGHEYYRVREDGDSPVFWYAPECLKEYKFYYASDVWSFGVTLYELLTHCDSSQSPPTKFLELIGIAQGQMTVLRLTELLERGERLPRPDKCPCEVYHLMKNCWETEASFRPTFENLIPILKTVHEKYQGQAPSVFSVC

`CN1CCOc2ccc(Nc3ncc(F)c(-c4cnn(C(CC#N)C5CCCC5)c4)n3)cc2OCC1` (centres unmarked) [Example 25]: the inhibition at 0.01 µM in assay [1] and in assay [4] was 40 to 79% in each case. Moreover, the inhibition at 0.1 µM in assay [1] is over 80%; in assay [2] it was 40 to 79%; in assay [3] (read-out: inhibition rate CDK7), 40 to 79%; in assay [4] it was over 80%; in assay [5], 40 to 79%; in assay [6], 40 to 79%. Also, the IC50 in assay [1] was under 50 nM; in assay [5], 50 to 200 nM; in assay [6], under 50 nM.

On to `CC(C)S(=O)(=O)c1ccccc1Nc1nc(Nc2ccc3c(c2)OCCN(C)CCO3)nc2[nH]ccc12` [Example 35, N^4-(2-(isopropylsulfonyl)phenyl)-N^2-(4-methyl-3,4,5,6-tetrahydro-2H-benzo[b][1,4, 7]dioxazolin-9-yl)-7H-pyrrolo[2,3-d]pyrimidin-2,4-diamine], for which the inhibition at 0.01 µM was 40 to 79% in assay [1], over 80% in assay [5] and 25 to 39% in assay [6]. Further, the inhibition at 0.1 µM in assay [1] is over 80%; in assay [2] it was 40 to 79%; in assay [3] (read-out: inhibition rate CDK7) it was 40 to 79%; in assay [4] it was 40 to 79%; in assay [5] it was over 80%; in assay [6], over 80%. Moreover, the IC50 in assay [1] is under 50 nM; in assay [2] (kinase activity assay, Table 3), 50 to 200 nM; in assay [3], under 50 nM; in assay [5], under 50 nM; in assay [6] it was under 50 nM.

Regarding `CN1CCOc2ccc(Nc3nc(-c4ccc(C(=O)NCC#N)cc4)c4cc[nH]c4n3)cc2OCC1` [Example 2], the inhibition at 0.1 µM in assay [3] (read-out: inhibition rate CDK7) is 25 to 39%; in assay [4], over 80%; in assay [6], over 80%. For the same compound, the IC50 in assay [6] is under 50 nM.

For `CC(C)S(=O)(=O)c1ccccc1Nc1nc(Nc2ccc3c(c2)OCCOCCN(C)CCO3)nc2[nH]ncc12` [Example 11, N^4-(2-(isopropylsulfonyl)phenyl)-N^6-(7-methyl-2,3,6,7,8,9-hexahydro-5H-benzo[b][1,4, 7]trioxa[10]azacyclododecan-13-yl)-1H-pyrazolo[3,4-d]pyrimidin-4,6-diamine], the inhibition at 0.01 µM in assay [1] lay within 40 to 79%; in assay [4] it was 25 to 39%; in assay [6] it was 40 to 79%. Besides, the inhibition at 0.1 µM was over 80% in assay [1]; 40 to 79% in assay [3] (read-out: inhibition rate CDK7); over 80% in assay [4]; 40 to 79% in assay [5]; over 80% in assay [6].

In the case of `CN1CCOCCOc2ccc(Nc3ncc(F)c(-c4cnn(C(CC#N)C5CCCC5)c4)n3)cc2OCC1` (centres unmarked) [Example 42, 3-cyclopentyl-3-(4-(5-fluoro-2-((7-methyl-2,3,6,7,8,9-hexahydro-5H-benzo[b][1,4,7]trioxa[10]azacyclododecan-12-yl)amino)pyrimidin-4-yl)-1H-pyrazol-1-yl)propanenitrile], the inhibition at 0.01 µM was over 80% in assay [1]; 25 to 39% in assay [3] (at 10 nM, read-out: inhibition rate CDK7); over 80% in assay [4].

Turning to `CN1CCOCCOc2cc(Nc3nc(Nc4cccc(S(=O)(=O)NC(C)(C)C)c4)c4cc[nH]c4n3)ccc2OCC1` [Example 20, N-(tert-butyl)-3-((2-((7-methyl-2,3,6,7,8,9-hexahydro-5H-benzo[b][1,4,7]trioxa[10]azacyclododecan-13-yl)amino)-7H-pyrrolo[2,3-d]pyrimidin-4-yl)amino)benzenesulfonamide], the inhibition at 0.1 µM in assay [1] is over 80%; in assay [3] (read-out: inhibition rate CDK7), 40 to 79%; in assay [4], 25 to 39%; in assay [5] it was 40 to 79%; in assay [6], 40 to 79%.

For `CN1CCOCCOc2ccc(Nc3nc(Nc4cccc(S(=O)(=O)NC(C)(C)C)c4)c4cc[nH]c4n3)cc2OCC1` [Example 19, N-(tert-butyl)-3-((2-((7-methyl-2,3,6,7,8,9-hexahydro-5H-benzo[b][1,4,7]trioxa[10]azacyclododecan-12-yl)amino)-7H-pyrrolo[2,3-d]pyrimidin-4-yl)amino)benzenesulfonamide], the inhibition at 0.01 µM in assay [1] and in assay [5] was 40 to 79% in each case. The inhibition at 0.1 µM in assay [1] is over 80%; in assay [3] (read-out: inhibition rate CDK7), 40 to 79%; in assay [4], 25 to 39%; in assay [5], over 80%; in assay [6], 40 to 79%. Further, the IC50 in assay [1], in assay [3] and in assay [5] was under 50 nM in each case.

On to `CCS(=O)(=O)N1CC(CC#N)(n2cc(-c3nc(Nc4ccc5c(c4)OCCN(C)CCO5)ncc3F)cn2)C1` [Example 37, 2-(1-(ethylsulfonyl)-3-(4-(5-fluoro-2-((4-methyl-3,4,5,6-tetrahydro-2H-benzo[b] [1,4,7]dioxazolin-9-yl)amino)pyrimidin-4-yl)-1H-pyrazol-1-yl)azetidin-3-yl)acetonitrile], for which the inhibition at 0.01 µM in assay [1], in assay [4] and in assay [6] was 40 to 79% each time. Besides, the inhibition at 0.1 µM in assay [1] was over 80%; in assay [2], 40 to 79%; in assay [3] (read-out: inhibition rate CDK7), 25 to 39%; in assay [4] it was over 80%; in assay [5], 25 to 39%; in assay [6], over 80%. Besides, the IC50 in assay [1] and in assay [6] was under 50 nM each time.

As to `CN1CCOCCOc2cc(Nc3nc(-c4cn(C)c5ccccc45)c4cc[nH]c4n3)ccc2OCC1` [Example 23, 7-methyl-N-(4-(1-methyl-1H-indol-3-yl)-7H-pyrrolo[2,3-d]pyrimidin-2-yl)-2,3,6,7,8,9-hexahydro-5H-benzo[b][1,4,7]trioxa[10]azacyclododecan-13-amine], the inhibition at 0.1 µM in assay [1] is over 80%; in assay [3] (read-out: inhibition rate CDK7), 40 to 79%; in assay [4] it was 25 to 39%; in assay [5], 40 to 79%; in assay [6], 40 to 79%.
